{"source": "paper PMC8350397", "about": "“GSK137, a potent small-molecule BCL6 inhibitor with in vivo activity, suppresses antibody responses in mice” (The Journal of Biological Chemistry, 2021)", "key": {"splenic germinal centers": {"system": "splenic germinal centers", "assay": "Spleen immunohistochemistry of germinal centers", "assay_type": "in vivo, mouse", "procedure": "Immunohistochemistry of GCs in spleens was obtained from a pilot experiment to test immunization conditions carried out at the University of Leicester using groups of C57BL/6J mice. One group of mice was immunized with TNP-KLH (100 μg) followed by treatment with GSK137 15 mg/kg by oral gavage three times per day from day -1 to day +12 (n = 3), whereas the other was treated with vehicle by oral gavage three times per day from day -1 to day +12 following immunization (n = 6). Formalin-fixed paraffin-embedded sections of mouse spleen were stained with antimouse B220/CD45R (BD Biosciences; catalog no. 550286), […] (Abcam; ab32064), and anti-Ki67 (Abcam; ab15580) antibodies using Opal Multiplex IHC detection kit (NEL810001KT; Akoya Biosciences). The sections were counterstained with 4',6-diamidino-2-phenylindole for 5 min and mounted with ProLong Diamond Antifade mountant (Invitrogen; P36970). Images were obtained using Vectra Polaris multicolor fluorescence scanner (Akoya Biosciences). Quantification was carried out by inForm image analysis software (Akoya Biosciences). Normality tests were carried out for the B220^+Ki67^+ and […]^+ data. Both datasets were normally distributed, and accordingly, statistical significance was determined by unpaired t test."}, "[1]": {"target": "T1, human BCL6 BTB-POZ domain (nuclear receptor co-repressor 1 peptide) (Homo sapiens, UniProt P41182, C67R/C84N/C8Q)", "T1 construct": "BCL6-Flag-6H-Avi (5-129) C8Q, C67R, C84N proteins; Flag (C); 6H (His6) (C); made in house; host or cells: E. coli", "assay": "BCL6 TR-FRET assay, NCOR peptide displacement", "assay_type": "binding", "details": "NCOR1 peptide, read-out: pIC50 Human TR-FRET nuclear receptor co-repressor 1 (converted)", "procedure": "Human, mouse and rat BCL6-Flag-6H-Avi (5-129) C8Q, C67R, C84N proteins were expressed in E. coli according to standard procedures and purified on Ni-NTA, followed by ion exchange on a Source 30Q column and size exclusion on an Superdex 200 column in a buffer of 20 mM Tris, 250 mM NaCl, 5 mM DTT, 5% glycerol, pH 8.5. All protein purities were estimated to be >90% by SDS-PAGE and the expected masses were confirmed by MS analysis. For TR-FRET assay protein was enzymatically biotinylated by treatment of protein at 100 µM with a 2 fold molar excess of biotin in the presence of 2 mM ATP and 1 µM BirA enzyme in a buffer of 50 mM bicine pH 8.3, 10 mM MgCl2 at 30 °C for 1 hour, followed by extensivedialysis against 50 mM Tris-Cl pH 8.0, 100 mM NaCl, 1 mM DTT using a 3.5 kDa cut-off membrane. Biotinylation was confirmed by MS analysis and concentration was determined by Bradford assay, after which protein was stored in aliquots at -80 °C.\nAcceptor-labelled SMRT peptide H2N-[…](D2)-OH was dissolved in water by mass to give a 500 µM stock solution which was stored at -20 °C. Acceptor-labelled NCOR peptide H2N-[…](Alexa Fluor 647)-OH and acceptor-labelled BCOR peptide H2N-[…](Alexa Fluor 647)-OH were dissolved to a nominal concentration of 1 mM in DMSO, and stock solution concentration was determined by absorbance at 650 nm using an extinction coefficient of 270,000 M-1cm^-1. […]"}}, "data": [{"molecule": "Cc1ncccc1[C@H]1C[C@@H](c2cccc3nc(N)ccc23)Nc2c(F)cnn21", "note": "[GSK137, 5-((5S,7R)-3-Fluoro-7-(2-methylpyridin-3-yl)-4,5,6,7-tetrahydropyrazolo[1,5-a]pyrimidin-5-yl)quinolin-2-amine]", "values": [{"measurement": "fraction of B220+ cells expressing clPARP within splenic B-cell follicles vs control", "setting": "splenic germinal centers; 15 mg/kg", "result": "no significant difference"}, {"measurement": "number of GCs per follicle (mean ± SD)", "setting": "splenic germinal centers; 15 mg/kg orally TID, C57BL/6J mice, vehicle 0.5 ± 0.11, p = 0.04", "result": "0.27 ± 0.06"}, {"measurement": "numbers of B220+Ki-67+ cells within each GC vs vehicle", "setting": "splenic germinal centers; 15 mg/kg, unpaired t test, p = 0.01", "result": "significant reductions"}, {"measurement": "IC50", "setting": "[1]", "result": 25.1, "unit": "nM"}]}]}
